Data on two compounds can be found in patent US10092644B2, “Use of fluorinated cyclic dinucleotides as oral vaccine adjuvants” (BROCK UNIVERSITY, priority 2013, dated 2018).

The subject of one assay is Listeria flagellin. Put plainly: Oral immunization with Listeria flagellin admixed with adjuvant; ELISA for flagellin-specific antibodies. It is filed as in vivo, BALB/c mice. Particulars: day 35. For orientation: In an ELISA, binding on a coated surface is turned into a signal by an enzyme label.
For assay [1], the system named is splenocytes stimulated by HPCE. As to conditions: mouse, in vivo, po.
Assay [2] has as its system recombinant PsaA protein of S. pneumoniae. Put plainly: Intranasal immunization of mice with PsaA admixed with adjuvant; ELISA for PsaA-specific IgA and IgG isotypes. It is filed as in vivo, BALB/c mice. The text has this:
Mice. Six to eight-week-old female BALB/c or C57BL/6 mice were purchased from Charles Rivers Laboratories (St. Constant, Quebec). The animals were housed under specific-pathogen-free conditions in a federally licensed small animal containment level 2 facility, and given free access to sterile water and certified mouse chow. The animals were maintained and used in accordance with the recommendations of the Canadian Council on Animal Care Guide to the Care and Use of Experimental Animals, and the experimental procedures were approved by the institutional animal care committee.
(§1) Intranasal or oral immunization in mice. For intranasal immunization, mice were lightly anesthetized under isofluorane. On day 0, 14 and 21, groups of mice (n=5) were inoculated with 50 μl of various vaccine preparations or controls as detailed in Examples 1-5. For oral immunization, various vaccine preparations or controls in 0.2 ml volume were administered by gavage via an 18-gauge feeding needle.
At day 28, blood and mucosal samples (fecal pellets or/and vaginal wash) were collected as described elsewhere (Patel G B, Zhou H, Ponce A, Chen W (2007). Mucosal and systemic immune responses by intranasal immunization using archaeal lipid-adjuvanted vaccines. Vaccine 25: 8622-8636.). In some experiments, nasal wash samples were also collected at the end of experiment. For both the vaginal and nasal wash, the volume of the lavage fluid recovered from each mouse was recorded. Since the recovery of lavage volumes among different mice in our study were very similar (about 90%), the small variation among individual samples was not adjusted. All samples were stored at −20° C. until assay.
Vaginal wash samples were collected by slowly injecting and withdrawing (3-4 times) 50 μl PBS (pH 7.2) into the vagina of conscious mice, using a P100 pipette. The volume of the vaginal lavage fluid recovered from each mouse was recorded.
Enzyme-linked immunosorbent assay (ELISA) for PsaA-specific IgA and IgG isotypes. Levels of PsaA-specific antibodies in serum and mucosal samples were measured by an enzyme-linked immunosorbent assay (ELISA) modified from a previously described procedure (Yan H, Kuo Lee R, Tram K, Qiu H, Zhang J, Patel G B, Chen W. 3′,5′-Cyclic diguanylic acid elicits mucosal immunity against bacterial infection. Biochemical and Biophysical Research Communications, 2009; 387(3):581-4.). Briefly, 96-well Immunolon 2^R microplates (Thermo Electron Corporation, Milford, Mass.) were coated with 0.5 μg PsaA/well in 100 μl of 0.015 M sodium carbonate and 0.035 M sodium bicarbonate buffer (pH 9.6) at 4° C. overnight. All the subsequent incubations were carried out at room temperature. The wells were blocked by incubation with 5% bovine serum in PBS for 1 h, and then rinsed three times with PBS-0.05% Tween 20. Duplicates of 100 μl pre-diluted samples were added to the wells. Sample dilutions were as follows: 1:2 for fecal extracts and nasal washes, 1:2000 for serum IgG1, 1:500 for serum IgG2a and 1:50 for serum IgA. After the plates were incubated for 3 h, alkaline phosphatase-conjugated goat antibodies specific for mouse IgA, IgG1 and IgG2a (all from Caltag Laboratories, Burlingame, Calif.) were added and incubated for 1 h. Color reactions were developed by the addition of p-nitrophenyl phosphate (pNPP) substrate (KPL, Inc., Gaithersburg, Md.), and optical density was measured at 405 nm with an automated ELISA plate reader (Multiskan Ascent, Thermo Labsystems, Vantaa, Finland). Pooled samples collected from mice that had been intranasally immunized with the PsaA+CT or from the naïve mice were used as positive or negative controls respectively.
To determine if 2′-F-c-di-GMP can elicit mucosal immune responses to microbial (bacterial and viral) antigens, groups of BALB/c mice were intranasally (i.n.) immunized with 2 μg recombinant PsaA protein of S. pneumoniae admixed with 2.5 μg 2′-F-c-di-GMP, 2.5 μg c-di-GMP, or 10 μg c-di-GMP at day 0, 14 and 21. […]

In the next assay the test system is C. difficile flagellin. As to the kind of experiment: Oral immunization with C. difficile flagellin admixed with adjuvant; ELISA for flagellin-specific antibodies. It is filed as in vivo, BALB/c mice. Particulars: day 35.
The test system of the next assay is H. pylori SS1. Put plainly: Mouse model of H. pylori gastric colonization after oral immunization. It is filed as in vivo, mice.
Another assay relates to S. pneumoniae. As to the kind of experiment: Mouse S. pneumoniae nasopharyngeal colonization model after intranasal immunization. It is filed as in vivo, mice. On the procedure:
as §1
Intranasal challenge of mice with S. pneumoniae. Fresh inocula were prepared for each experiment from a frozen stock of S. pneumoniae (type 14). […] The actual inoculum concentrations were determined by plating 10-fold serial dilutions on chocolate agar. Inoculated mice were sacrificed 3 days later and the nasal cavity was lavaged with 0.5 ml lavage fluid and aliquots (100 μl) of 10-fold serial dilutions of the lavage fluids were cultured, in duplicates, on chocolate agar plates to quantify the number of viable organisms.
Next, it was determined if the mucosal immune responses induced by the 2′-F-c-di-GMP adjuvanted vaccine are protective against mucosal infections in the well-established mouse S. pneumoniae colonization model. […] Mice were sacrificed 3 days after challenge, and the nasopharyngeal tract was lavaged and bacterial numbers in the nasal wash were determined.

The test system of assay [3] is H. pylori cell-free sonicate extract (HPCE). More on the design: species or system C57BL/6 mice. Particulars: mouse, in vivo, po.
Assay [4] concerns pneumococcal surface adhesion A (Psa). As to conditions: mice, intranasally, Psa together with c-di-GMP (Yan et al. 2009); cited from earlier work.
Where [5] appears, read: oral 50 μg Listeria flagellin + 75 μg adjuvant.
Setting [6] is: i.n. 2 μg PsaA admixed with 2.5 μg adjuvant at day 0, 14 and 21, samples day 28, FIG. 1.
[7] abbreviates: i.n. with 2 μg PsaA, comparator 2.5 μg or 10 μg c-di-GMP.
The mark [8] stands for this setting: oral 30 μg C. difficile flagellin + 75 μg adjuvant.

With 2′-F-c-di-GMP, in the assay with Listeria flagellin (setting [5]), the “IgG1 response in the serum compared with sham-immunized mice” value is “substantially higher”, the “IgG2a response in the serum compared with sham-immunized mice” value was “substantially higher” and the “antigen-specific IgA response in feces compared with sham-immunized mice” value was “substantially higher”. For the same compound, the “Listeria flagellin-specific IgA in feces” value with Listeria flagellin (oral 50 μg Listeria flagellin admixed with 75 μg adjuvant day 0, 14, 21, FIG. 6) is “small amount”. For the same compound, in assay [1], the “IFN-γ produced by splenocytes compared to cells from CT-immunized mice” value is “even higher”, the “IFN-γ produced by splenocytes compared to sham-immunized mice” value is recorded as “substantially higher”, the “IL-2 produced by splenocytes compared to sham-immunized mice” value was “substantially higher” and the “IL-17 produced by splenocytes compared to sham-immunized mice” value is listed as “substantially higher”. Moreover, in assay [2] (setting [6]), the “PsaA-specific IgA in feces” value is “high level”, the “PsaA-specific IgA in nasal wash” value is “high level”, the “PsaA-specific IgA in serum” value is listed as “high level” and the “PsaA-specific serum IgG1 level” value is “high level”. For the same compound, in assay [2] (setting [6]), the “PsaA-specific serum IgG2a level” value is given as “high level”. Moreover, in assay [2] (setting [7]), the “IgG2a response in the serum compared to parental c-di-GMP” value is “stronger”, the “antigen-specific IgA response in feces compared to parental c-di-GMP” value is on record as “stronger” and the “antigen-specific IgA response in vaginal washings compared to parental c-di-GMP” value is listed as “stronger”. In addition, in the assay with C. difficile flagellin (setting [8]), the “IgG1 response in the serum compared with sham-immunized mice” value is listed as “substantially higher”, the “IgG2a response in the serum compared with sham-immunized mice” value was “substantially higher” and the “antigen-specific IgA response in feces compared with sham-immunized mice” value is on record as “substantially higher”. In addition, in the assay on C. difficile flagellin (oral 30 μg C. difficile flagellin admixed with 75 μg adjuvant day 0, 14, 21, FIG. 6), the “C. difficile flagellin-specific IgA in feces” value is reported as “substantial amount”. For the same compound, the “magnitude of reduction of H. pylori colonization relative to HPCE adjuvanted with CT” value in the assay with H. pylori SS1 (HPCE+2′-F-c-di-GMP vs HPCE+CT, oral) is “comparable”. In the assay with H. pylori SS1 (both low or high doses of HPCE + 2′-F-c-di-GMP, oral), the “bacterial burdens in the gastric mucosa compared to sham (PBS)-immunized mice” value was “significantly reduced bacterial burdens”. The “gastric colonization of H. pylori compared to sham-immunized mice” value in the assay on H. pylori SS1 (oral immunization, oral challenge 10^8 CFU H. pylori SS1 three times from day 35, stomach 6 weeks after first challenge, P<0.05 for adjuvanted group, FIG. 5) is “significantly reduced colonization”. The “magnitude of reduction of S. pneumoniae colonization relative to PsaA+CT immunized mice” value in the assay on S. pneumoniae (PsaA+2′-F-c-di-GMP i.n., PsaA+CT data from Yan et al. 2009) is on record as “comparable”. The “nasopharyngeal colonization of S. pneumoniae compared to sham-immunized mice” value with S. pneumoniae (i.n. immunization, i.n. challenge 4.55×10^6 CFU at day 35, nasal wash bacterial numbers 3 days after challenge, P<0.05 for adjuvanted group, FIG. 2) was “significantly reduced colonization”. In assay [3], the “IgG2a response in the serum compared with sham-immunized mice” value was “substantially higher”, the “antigen-specific IgA level in feces” value is reported as “substantial amount”, the “antigen-specific IgA level in serum” value is “substantial amount” and the “antigen-specific IgA response in feces compared with sham-immunized mice” value was “substantially higher”. Also, in assay [3], the “antigen-specific serum IgG1 level” value is “substantial amount” and the “antigen-specific serum IgG2a level” value is on record as “substantial amount”.
As for `Nc1nc2c(ncn2C2OC3COP(=O)(O)OC4C(COP(=O)(O)OC3C2O)OC(n2cnc3c(=O)[nH]c(N)nc32)C4O)c(=O)[nH]1` (centres unmarked) [c-di-GMP, 3′,5′-cyclic diguanylic acid], in assay [4], the “antigen specific antibody response” value is recorded as “enhanced”.
